Data: patent US8906846B2, “Method of treating inflammatory bowel disease by administering a clip-inducing agent” (The Texas A&M University System, priority 2011, dated 2014)

Columns and labels:
[1] = tested on: CRL-5822 cells; experiment: Effects of CpG, MKR.4 and anti-MHC class II antibody on CRL-5822 cell viability counts (Example 2); format: cell-based, human; conditions: CpG 1 ug/mL at start, MKR.4 2.5 ug/mL 24 h later for 2 h, Anti MHC Class II 5 ug/mL, viability counts 24 h after antibody
Protocol: CRL-5822 were Prepared as Follows: • Removed the media from a flask of CRL-5822 using a sterile glass pipet and vacuum • Added 1.5 mL of accutase to the flask and placed in incubator for 20 minutes • Washed with 3 mL of PBS • Transferred all to a sterile 15 mL conical tube • Centrifuged for 5′@1000 rpm • Removed supernatant with sterile glass pipet and vacuum • Resuspended in 3 mL of PBS • Performed a hemacytometer count indicating: 1.14*10^6 cells total of CRL-5822 cells • 1.14*10^6/8 wells+2 wells for culture maintenance=10 wells • 1.14*10^6/10 wells=[…] cells per well • Centrifuged the 3 mL of cell suspension for 5′ at 1000 rpm • Resuspended pellet in 10 mL of 10% FBS RPMI • 1 mL of this was added to 2 wells in a 12-well plate added 1 mL of fresh 10% FBS RPMI to each well to bring the total volume up to 2 mL.
(§1) 8 wells were set up for the experiment for each cell type (CRL-5822 and C57BL/6) with no treatment, with CpG, MKR.4 peptide, with MKR.4 peptide+CpG and with or without addition of purified Anti Class-II (HLA-DR,DP,DQ) treatment in the amounts listed below.
CRL-5822 • CpG: • (x) (1 mg/mL stock)=(1 ug/mL) (2 mL) • x=2 ul • MKR.4: • (x) (5 mg/mL stock)=(2.5 ug/mL) (2 mL) • x=1 ul • Anti MHC Class II • Treat at 5 ug/mL • Stock is at 1 mg/mL • (x) (1 mg/mL)=(5 ug/mL) (2 mL) • x=10 ul/well
(§2) CpG was administered to activate the cells and induce CLIP expression. MKR.4 was added to select wells 24 hours after cell activation. The cells were incubated with MKR.4 for 2 hours. Then fresh media with or without Anti MHC Class II was added. 24 hours after Anti MHC Class II was added to the wells viability counts were performed.

[2] = tested on: C57BL/6 splenocytes; experiment: Effects of CpG, MKR.4 and anti-MHC class II antibody on C57BL/6 splenocyte viability counts (Example 2); format: cell-based, mouse; conditions: CpG 5 ug/mL at start, MKR.4 5 ug/mL 24 h later for 2 h, Anti MHC Class II 5 ug/mL, viability counts 24 h after antibody
Protocol: C57BL/6 were Prepared as Follows: • A spleen from a C57BL/6 mouse was placed in a cell strainer in a petri dish with 6 mL of PBS • The spleen was mashed to produce a cell suspension • The PBS splenocyte cell suspension was transferred into a labeled 15 mL conical tube and centrifuged for 5 minutes at 1000 rpm • The pellet was resuspended in 1 mL of PBS • Geys was prepared to lyse the red blood cells • 7 mL of DI H20 • 0.5 mL of Geys B • 0.5 mL of Geys C • weighed out […] of NH4Cl • Mixed the […] of NH4Cl with 2 mL of Geys A • Transferred the dissolved solution to a 15 mL conical tube with the H20, Geys B, and Geys C • 3 mL of the Geys solution was added to the 1 mL of PBS cell suspension, mixed well and placed on ice for 1 minute (frequently inverted solution in tube on ice during the 1 minute) • The mixture was centrifuged for 5 minutes at 1000 rpm, washed with 5 mL of PBS, centrifuged for 5 minutes at 1000 rpm and resuspended in 10 mL of PBS • A hemacytometer count was performed: 99.0*10^6 cells total (9.9*10^6 cells/mL) plate 4*10^6 cells per well*8 wells=32 million; 32*10^6/9.9*10^6=3.23 mL of this suspension needed to obtain 32*10^6 cells • Centrifuged 3.23 mL of the suspension for 5 minutes at 1000 rpm and resuspended the pellet in 8 mL of 5% FBS RPMI • 1 mL of suspension was added to each well (12-well plate) • Added another 2 mL of 5% FBS RPMI to each well to bring the final volume up to 3 mL
as §1
C57BL/6 • CpG: • (x) (1 mg/mL stock)=(5 ug/mL) (3 mL) • x=15 ul • MKR.4: • (x) (5 mg/mL stock)=(5 ug/mL) (3 mL) • x=3 ul • Anti MHC Class II • Treat at 5 ug/mL • Stock is at 1 mg/mL • (x) (1 mg/mL)=(5 ug/mL) (3 mL) • x=15 ul/well
as §2

[3] = tested on: CRL-5822 cells; experiment: Effects of LPS, MKR.4 and anti-MHC class II antibody on CRL-5822 cell viability counts (Example 1); format: cell-based, human; conditions: LPS 1 ug/mL at start, MKR.4 2.5 ug/mL 24 h later for 2 h, Anti MHC Class II 5 ug/mL, viability counts 24 h after antibody
Protocol: Methods • The media was removed from a flask of CRL-5822 using a sterile glass pipet and vacuum and 1.5 mL of accutase was added to the flask and placed in incubator for 20 minutes • The cells were washed with 3 mL of PBS and transferred to a sterile 15 mL conical tube and centrifuged for 5 minutes @1000 rpm • The supernatant was removed with sterile glass pipet and vacuum and the pellet resuspended in 5 mL of PBS • A cell count was performed using the TC-10 automated counter • Loaded 10 ul of cell suspension+10 ul of trypan blue into disposable counting slide • Loaded slide into the TC-10 • Count • Live: 3.54*10^4 cells/mL*5 mL=177,000 cells total • 177,000/9 wells (8 wells in experiment+1 to maintain culture)=19,666 cells/well (flask). • The 5 mL of cell suspension was centrifuged for 5′ at 1000 rpm, the pellet was resuspended in 9 mL of 10% FBS RPMI • 1 mL of the cell suspension was added to a T-25 flask that had 4 mL of media in it and placed in the incubator. • After culture 1 mL of the cell suspension was added to each well (8 wells in a labeled 24 well plate) • A fresh vial of MKR.4 was resuspended in sterile DMSO • 7 mg of peptide was used to make a 5 mg/mL stock • 7 mg/mL=5 mg/mL=1.4 mL of DMSO • The peptide was added into 1.4 mL of DMSO, under the hood to maintain sterility • Once all of the peptide was dissolved, 200 ul aliquots were made […]

With “5′-tcgtcgttttgtcgttttgtcgtt-3′ [CpG, reference compound]” the “Total Dead” value [1] was 0.07*10^6, the “Total Live” value [1] was 0.35*10^6 and the “Total Dead” value [2] was 0.08*10^6. The “Total Live” value [2] was 1.25*10^6.
In the case of “ANS GFR IMA VLA SGG QY (ANSGFRIMAVLASGGQY) [MKR.4]”, the “Total Dead” value [3] is reported as 0.07*10^6, the “Total Live” value [3] is reported as 0.32*10^6 and the “Total Dead” value [1] is reported as 0.08*10^6. For the same substance, the “Total Live” value [1] was 0.24*10^6, the “Total Dead” value [2] was 0.10*10^6 and the “Total Live” value [2] was 0.44*10^6.
